Data set [1] in a line: Metabolic stability in human plasma assessed as half life after 360 mins. The format is ADME, cell-free.
Data set [2] can be described thus: cells.
Description: Inhibition of caspase-like activity of 20S proteasome beta 1 subunit by cell based assay
The nature of data set [3]: cells. This is another data set of the same source.
Description: Inhibition of trypsin-like activity of 20S proteasome beta 2 subunit by cell based assay

SMILES strings stand for the structures.

By half-life is commonly meant the time in which the quantity being followed falls by half. As a reminder, the IC50 is the midpoint of a concentration-inhibition curve. A low value points to higher potency. As for `COC(=O)/C=C/[C@H](CC(C)C)NC(=O)CC[C@@H]1NC(=O)[C@H](CC(C)C)NC(=O)[C@H](CC(C)C)C(=O)NC(=O)[C@H](C(C)C)NC1=O`, in data set [1], the half-life is greater than 6 h. In “cells [2]”, this molecule returned an IC50 of 273 nM.
Consider `COC(=O)/C=C/[C@H](CC(C)C)NC(=O)CC[C@H](NC(=O)[C@H](CC(C)C)NC(=O)[C@H](CC(C)C)C(=O)NC(=O)CN)C(N)=O`, for which the half-life in data set [1] was 0.808 h.
Still for that read-out and setting: with `COC(=O)/C=C/[C@H](CC(C)C)NC(=O)CC[C@H](NC(=O)[C@H](CC(C)C)NC(=O)[C@H](CC(C)C)C(=O)NC(=O)[C@@H](N)CO)C(N)=O` the figure was 1.43 h.
As to `COC(=O)/C=C/[C@H](CC(C)C)NC(=O)CC[C@@H]1NC(=O)[C@H](CC(C)C)NC(=O)[C@H](CC(C)C)C(=O)NC(=O)[C@H](C)NC1=O`, the half-life in data set [1] is greater than 6 h. In addition, the IC50 in “cells [2]” worked out at 123 nM.
With `COC(=O)/C=C/[C@H](CC(C)C)NC(=O)CC[C@H](NC(=O)[C@H](CC(C)C)NC(=O)[C@H](CC(C)C)C(=O)NC(=O)[C@@H](N)C(C)C)C(N)=O`, the half-life in data set [1] amounted to 1.96 h.
As for `COC(=O)/C=C/[C@H](CC(C)C)NC(=O)CC[C@@H]1NC(=O)[C@H](CC(C)C)NC(=O)[C@H](CC(C)C)C(=O)NC(=O)CNC1=O`, the half-life in data set [1] is greater than 6 h. For the same molecule, the IC50 in “cells [3]” came out at 5830 nM; in the data set “cells [2]” it was 221 nM.
In the same order, the values of `COC(=O)/C=C/[C@H](CC(C)C)NC(=O)CC[C@@H]1NC(=O)[C@H](CC(C)C)NC(=O)[C@H](CC(C)C)C(=O)NC(=O)[C@H](CO)NC1=O` are greater than 6 h, 6940 nM and 91 nM.
For `COC(=O)/C=C/[C@H](CC(C)C)NC(=O)CC[C@H](NC(=O)[C@H](CC(C)C)NC(=O)[C@H](CC(C)C)C(=O)NC(=O)[C@H](C)N)C(N)=O`, the half-life in data set [1] came out at 1.22 h.
